Experimental data published in patent US20250092039A1, “GLUTARIMIDE-CONTAINING PAN-KRAS-MUTANT DEGRADER COMPOUNDS AND USES THEREOF” (Tiger Biotherapeutics Inc., priority 2022, published 2025).
pIC50: −log10 of the molar value. Like-named read-outs stand apart in the source and are kept apart here.

How the values were obtained:
KRAS G12V = KRAS G12V (Homo sapiens (Human), UniProt P01116, G12V); assay: KRAS G12V degradation in SW620 cells (Western blot, DC50); format: cell-based; details: 24 hours
Outline: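 KRAS levels were quantified by fluorescent Western blot as percent of the DMSO control after 24 h of compound exposure at 37° C in homozygous KRAS G12V SW620 cells. A four-parameter variable-slope fit of the dose-response gave the half-maximal degradation concentration.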

[1] = Pharmacokinetics following single intravenous and oral gavage dosing (AUC0-24h); format: in vivo; details: mouse, plasma, male CD-1 mice
Method: Compounds disclosed herein were studied for animal tolerability and pharmacokinetics following single intravenous (iv) and oral gavage (po) dosing to male CD-1 mice. For each compound in each dosing route, 3 mice were used with iv dosing volume of 5 mL/kg and po dosing volume of 10 mL/kg. The compounds were formulated in 10% DMSO, 30% PEG400, 60% aqueous solution containing 20% 2-hydroxypropyl-β-cyclodextrin. Blood sampling time points for iv dosing were 0.083, 0.25, 0.5, 1, 2, 4, 8 and 24 h. The sampling time points for po dosing were 0.25, 0.5, 1, 2, 4, 6, 8 and 24 h. Mice activities were monitored and recorded immediately following the dosing. The prepared plasma samples were analyzed using LC/MS/MS on AB Sciex Triple Quad 5500+ system. The PK parameters were determined by non-compartmental analysis using WinNonlin (Version 8.0).

SW620 cells = assay: 3D cell growth inhibition of SW620 cells carrying endogenous KRAS G12V mutation (CellTiter-Glo 3D, GI50); format: cell-based; details: Homo sapiens, SW-620, 144 h, read-out: SW620 3D cell growth GI50
Outline: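 […], compound exposure lasted 6 days at 37° C, added the day after plating from DMSO stocks over a concentration range. Cells: SW620, KRAS G12V, 3D culture.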

KRAS-G12V/RAF1 = KRAS-G12V/RAF1 (Homo sapiens (Human), UniProt P01116, G12V); assay: KRAS/RAF1 binding inhibition assay (AlphaScreen)
Outline: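 IC50 comes from variable-slope nonlinear fits of % inhibition (relative to DMSO) against inhibitor concentration. The AlphaScreen signal tracks the interaction of GppNHp-bound KRAS G12V with the RAF1 RBD after 60 min at 4° C with compound in 2% DMSO final.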

Chain of KRAS G12V (P01116-2 other isoform, or with tags, fused parts or gaps G12V): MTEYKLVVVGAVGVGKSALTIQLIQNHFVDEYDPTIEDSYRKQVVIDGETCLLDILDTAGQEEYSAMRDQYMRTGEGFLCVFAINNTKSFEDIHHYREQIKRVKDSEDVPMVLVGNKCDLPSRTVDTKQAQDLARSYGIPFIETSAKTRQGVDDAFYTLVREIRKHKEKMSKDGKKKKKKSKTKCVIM
Chain of KRAS-G12V/RAF1 (P01116-2 other isoform, or with tags, fused parts or gaps G12V): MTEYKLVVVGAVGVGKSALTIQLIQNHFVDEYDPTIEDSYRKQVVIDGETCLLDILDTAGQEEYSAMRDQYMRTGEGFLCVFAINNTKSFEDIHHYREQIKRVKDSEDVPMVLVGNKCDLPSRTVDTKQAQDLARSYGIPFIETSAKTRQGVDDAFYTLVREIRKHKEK

Row | Compound | DC50 (KRAS G12V) [nM] | AUC(0-t) ([1]; single oral dose 30 mg/Kg) [ng·h/mL] | GI50 (SW620 cells; SW620 cells, 6 days) [nM] | pIC50 (KRAS-G12V/RAF1) | AUC(0-t) ([1]; single oral dose 15 mg/Kg) [ng·h/mL] | AUC(0-t) ([1]; single oral dose 25 mg/Kg) [ng·h/mL] | AUC(0-t) ([1]; single oral dose 50 mg/Kg) [ng·h/mL] | GI50 (SW620 cells) [nM]
1 | CCc1c(F)ccc2cc(O)cc(-c3ncc4c(N5CCC[C@@](C)(O)C5)nc(OCC5(CN6CCC(F)(CN7CCN(c8ccc9c(c8)CN([C@H]8CCC(=O)NC8=O)C9=O)CC7)CC6)CC5)nc4c3F)c12 [Compound 8, (S)-3-(5-(4-((1-((1-(((7-(8-ethyl-7-fluoro-3-hydroxynaphthalen-1-yl)-8-fluoro-4-((R)-3-hydroxy-3-methylpiperidin-1-yl)pyrido[4,3-d]pyrimidin-2-yl)oxy)methyl)cyclopropyl)methyl)-4-fluoropiperidin-4-yl)methyl)piperazin-1-yl)-1-oxoisoindolin-2-yl)piperidine-2,6-dione] | < 1 | 3420 | < 10 | 6.70 to 7.70 | – | – | – | –
2 | CCc1c(F)ccc2cc(O)cc(-c3ncc4c(N5CCC[C@]6(CCO6)C5)nc(OCC5(CN6CCC(CN7CCN(c8cc(F)c(C9CCC(=O)NC9=O)c(F)c8)CC7)CC6)CC5)nc4c3F)c12 (stereo partly drawn) [Compound 216, 3-(4-(4-((1-((1-(((7-(8-ethyl-7-fluoro-3-hydroxynaphthalen-1-yl)-8-fluoro-4-((S)-1-oxa-6-azaspiro[3.5]nonan-6-yl)pyrido[4,3-d]pyrimidin-2-yl)oxy)methyl)cyclopropyl)methyl)piperidin-4-yl)methyl)piperazin-1-yl)-2,6-difluorophenyl)piperidine-2,6-dione] | 1 to 10 | – | < 10 | < 6.70 | 2140 | – | – | –
3 | CCc1c(F)ccc2cc(O)cc(-c3ncc4c(N5CCC[C@@](C)(O)C5)nc(OCC5(CN6CCC(CN7CCN(c8ccc9c(c8)CN([C@H]8CCC(=O)NC8=O)C9=O)CC7)(OC)CC6)CC5)nc4c3F)c12 [Compound 25, (S)-3-(5-(4-((1-((1-(((7-(8-ethyl-7-fluoro-3-hydroxynaphthalen-1-yl)-8-fluoro-4-((R)-3-hydroxy-3-methylpiperidin-1-yl)pyrido[4,3-d]pyrimidin-2-yl)oxy)methyl)cyclopropyl)methyl)-4-methoxypiperidin-4-yl)methyl)piperazin-1-yl)-1-oxoisoindolin-2-yl)piperidine-2,6-dione] | < 1 | – | < 10 | > 7.70 | – | 525 | – | –
4 | CCc1c(F)ccc2cc(O)cc(-c3ncc4c(N5CCC[C@@](C)(O)C5)nc(OCC5(CN6CCC7(CCC(N8CCN(c9ccc%10c(c9)CN([C@H]9CCC(=O)NC9=O)C%10=O)CC8)CC7)CC6)CC5)nc4c3F)c12 [Compound 120, (S)-3-(5-(4-(3-((1-(((7-(8-ethyl-7-fluoro-3-hydroxynaphthalen-1-yl)-8-fluoro-4-((R)-3-hydroxy-3-methylpiperidin-1-yl)pyrido[4,3-d]pyrimidin-2-yl)oxy)methyl)cyclopropyl)methyl)-3-azaspiro[5.5]undecan-9-yl)piperazin-1-yl)-1-oxoisoindolin-2-yl)piperidine-2,6-dione] | 1 to 10 | – | < 10 | > 7.70 | – | – | 255 | –
5 | CCc1c(F)ccc2cc(O)cc(-c3ncc4c(N5CCC[C@@](C)(O)C5)nc(OCC5(CN6CCC(C)(CN7CCN(C8CCN(c9ccc%10c(c9)CN(C9CCC(=O)NC9=O)C%10=O)CC8)CC7)CC6)CC5)nc4c3F)c12 (stereo partly drawn) [Compound 39, 3-(5-(4-(4-((1-((1-(((7-(8-ethyl-7-fluoro-3-hydroxynaphthalen-1-yl)-8-fluoro-4-((R)-3-hydroxy-3-methylpiperidin-1-yl)pyrido[4,3-d]pyrimidin-2-yl)oxy)methyl)cyclopropyl)methyl)-4-methylpiperidin-4-yl)methyl)piperazin-1-yl)piperidin-1-yl)-1-oxoisoindolin-2-yl)piperidine-2.6-dione] | < 1 | 399 | < 10 | > 7.70 | – | – | – | –
6 | CCc1c(F)ccc2cc(O)cc(-c3ncc4c(N5CCC[C@@](C)(O)C5)nc(OCC5(CN6CCC7(CC6)CC(F)(CN6CCN(c8ccc9c(c8)CN([C@H]8CCC(=O)NC8=O)C9=O)CC6)C7)CC5)nc4c3F)c12 [Compound 134, (S)-3-(5-(4-((7-((1-(((7-(8-ethyl-7-fluoro-3-hydroxynaphthalen-1-yl)-8-fluoro-4-((R)-3-hydroxy-3-methylpiperidin-1-yl)pyrido[4,3-d]pyrimidin-2-yl)oxy)methyl)cyclopropyl)methyl)-2-fluoro-7-azaspiro[3.5]nonan-2-yl)methyl)piperazin-1-yl)-1-oxoisoindolin-2-yl)piperidine-2,6-dione] | < 1 | 982 | – | 6.70 to 7.70 | – | – | 1940 | < 10
7 | CCc1c(F)ccc2cc(O)cc(-c3ncc4c(N5CCC[C@@](C)(O)C5)nc(OCC5(CN6CCC(C)(CN7CCN(c8ccc9c(c8)CN([C@H]8CCC(=O)NC8=O)C9=O)CC7)CC6)CC5)nc4c3F)c12 [Compound 12, (S)-3-(5-(4-((1-((1-(((7-(8-ethyl-7-fluoro-3-hydroxynaphthalen-1-yl)-8-fluoro-4-((R)-3-hydroxy-3-methylpiperidin-1-yl)pyrido[4,3-d]pyrimidin-2-yl)oxy)methyl)cyclopropyl)methyl)-4-methylpiperidin-4-yl)methyl)piperazin-1-yl)-1-oxoisoindolin-2-yl)piperidine-2,6-dione] | < 1 | 3250 | < 10 | 6.70 to 7.70 | – | – | – | –
8 | CCc1c(F)ccc2cc(O)cc(-c3ncc4c(N5CCC[C@@](C)(O)C5)nc(OCC5(CN6CCC7(CC6)CC(CN6CCN(c8cc(F)c(C9CCC(=O)NC9=O)c(F)c8)CC6)C7)CC5)nc4c3F)c12 (stereo partly drawn) [Compound 49, 3-(4-(4-((7-((1-(((7-(8-ethyl-7-fluoro-3-hydroxynaphthalen-1-yl)-8-fluoro-4-((R)-3-hydroxy-3-methylpiperidin-1-yl)pyrido[4,3-d]pyrimidin-2-yl)oxy)methyl)cyclopropyl)methyl)-7-azaspiro[3.5]nonan-2-yl)methyl)piperazin-1-yl)-2,6-difluorophenyl)piperidine-2,6-dione] | < 1 | 3170 | < 10 | 6.70 to 7.70 | – | – | – | –
9 | CCc1c(F)ccc2cc(O)cc(-c3ncc4c(N5CCC[C@@](C)(O)C5)nc(OCC5(CN6CC(F)(CN7CC8(CCN(c9ccc%10c(c9)CN([C@H]9CCC(=O)NC9=O)C%10=O)CC8)C7)C6)CC5)nc4c3F)c12 [Compound 68, (S)-3-(5-(2-((1-((1-(((7-(8-ethyl-7-fluoro-3-hydroxynaphthalen-1-yl)-8-fluoro-4-((R)-3-hydroxy-3-methylpiperidin-1-yl)pyrido[4,3-d]pyrimidin-2-yl)oxy)methyl)cyclopropyl)methyl)-3-fluoroazetidin-3-yl)methyl)-2,7-diazaspiro[3.5]nonan-7-yl)-1-oxoisoindolin-2-yl)piperidine-2,6-dione] | 1 to 10 | 901 | < 10 | < 6.70 | – | – | – | –
10 | CCc1c(F)ccc2cc(O)cc(-c3ncc4c(N5CCC[C@]6(CCO6)C5)nc(OCC5(CN6CCC7(CCC(N8CCN(c9ccc%10c(c9)CN([C@H]9CCC(=O)NC9=O)C%10=O)CC8)CC7)CC6)CC5)nc4c3F)c12 [Compound 219, (S)-3-(5-(4-(3-((1-(((7-(8-ethyl-7-fluoro-3-hydroxynaphthalen-1-yl)-8-fluoro-4-((S)-1-oxa-6-azaspiro[3.5]nonan-6-yl)pyrido[4,3-d]pyrimidin-2-yl)oxy)methyl)cyclopropyl)methyl)-3-azaspiro[5.5]undecan-9-yl)piperazin-1-yl)-1-oxoisoindolin-2-yl)piperidine-2,6-dione] | < 1 | 718 | < 10 | > 7.70 | – | – | – | –
11 | CCc1c(F)ccc2cc(O)cc(-c3ncc4c(N5CCC[C@@](C)(O)C5)nc(OCC5(CN6CCC7(CCC(N8CCN(c9cc(F)c(C%10CCC(=O)NC%10=O)c(F)c9)CC8)CC7)CC6)CC5)nc4c3F)c12 (stereo partly drawn) [Compound 51, 3-{4-[4-(3-{[1-({[7-(8-ethyl-7-fluoro-3-hydroxynaphthalen-1-yl)-8-fluoro-4-[(3R)-3-hydroxy-3-methylpiperidin-1-yl]pyrido[4,3-d]pyrimidin-2-yl]oxy}methyl)cyclopropyl]methyl}-3-azaspiro[5.5]undecan-9-yl)piperazin-1-yl]-2,6-difluorophenyl}piperidine-2,6-dione] | 1 to 10 | 2280 | – | 6.70 to 7.70 | – | – | – | < 10
